Molecules are shown by their SMILES. Active and inactive are the calls of the source. The rule behind the calls is not given here.

Data set [1] has as its system Mus musculus. Nature of the data set: Toxicity in nude mouse xenografted with human EC109 cells assessed as skin ulceration at 5 mg/kg measured after 21 days. The format is organism-based. The following applies: in vivo, 504 h. In general terms: Xenograft models place foreign cells or tissue in a host animal.
In data set [2] the test system is ECa-109 cell line. Nature of the data set: Induction of apoptosis in human EC109 cells assessed as viable cells at 5 nM after 24 hrs by Annexin V-FITC/propidium iodide staining based flow cytometry (reference value: 96.1%). Format: functional. The following applies: ECa-109, 24 h, read-out: Activity. For orientation: In flow cytometry, cells or beads pass a laser one at a time.

The subject of data set [3] is Mus musculus. Nature of the data set: Toxicity in nude mouse xenografted with human EC109 cells assessed as pathological changes at 5 mg/kg measured after 21 days. Format: organism-based. The following applies: in vivo, 504 h.
Data set [4] has as its system ECa-109 cell line. Nature of the data set: Induction of apoptosis in human EC109 cells assessed as late apoptotic cells at 5 nM after 24 hrs by Annexin V-FITC/propidium iodide staining based flow cytometry (reference value: 1%). Format: functional.
Data set [5] has as its system ECa-109 cell line. Nature of the data set: Antitumor activity against human EC109 cells xenografted in nude mouse assessed as induction of necrosis at 5 mg/kg measured after 21 days by H and E staining based assay. The format is functional, organism-based.
Data set [6] deals with ECa-109 cell line. Nature of the data set: Induction of apoptosis in human EC109 cells assessed as nuclear shrinkage at 5 nM after 24 hrs by Hochest 33258 staining based fluorescent microscopic analysis. The format is functional, cell-based.
The subject of data set [7] is ECa-109 cell line. Nature of the data set: Induction of apoptosis in human EC109 cells assessed as nuclear condensation at 5 nM after 24 hrs by Hochest 33258 staining based fluorescent microscopic analysis. The format is functional, cell-based.
Data set [8] concerns ECa-109 cell line. Nature of the data set: Induction of apoptosis in human EC109 cells assessed as necrotic cells at 5 nM after 24 hrs by Annexin V-FITC/propidium iodide staining based flow cytometry (reference value: 1.6 %). Format: functional.
The subject of data set [9] is ECa-109 cell line. Nature of the data set: Induction of apoptosis in human EC109 cells assessed as early apoptotic cells at 5 nM after 24 hrs by Annexin V-FITC/propidium iodide staining based flow cytometry (reference value: 1.3%). Format: functional.
For data set [10], the system named is ECa-109 cell line. Nature of the data set: Cytotoxicity against human EC109 cells assessed as reduction in cell viability after 24 hrs by MTT assay. Format: functional, cell-based. Background: Tetrazolium assays rely on reduction of a dye to a coloured formazan, in cell work by metabolically active cells.
For data set [11], the system named is Mus musculus. Nature of the data set: Toxicity in nude mouse xenografted with human EC109 cells assessed as body weight loss at 5 mg/kg measured after 21 days. The format is organism-based. The following applies: in vivo, 504 h.

For the molecule `CC(=O)O[C@H]1C(=O)[C@@]2(C)[C@H]([C@H](OC(=O)c3ccccc3)[C@]3(O)C[C@H](OC(=O)[C@H](O)[C@@H](NC(=O)c4ccccc4)c4ccccc4)C(C)=C1C3(C)C)[C@]1(OC(C)=O)CO[C@@H]1C[C@@H]2O` [PACLITAXEL], the Activity entry in the data set on Mus musculus [1] is “Non-Toxic”; in the data set on Mus musculus [3], “Non-Toxic”; with ECa-109 cell line [4] it was 0.9%; with ECa-109 cell line [8], 0.5%; with ECa-109 cell line [9], 4.5%; in the data set on ECa-109 cell line [10] it was “Dose-dependent effect”. For the same molecule, the Activity result in the data set on Mus musculus [11] is on record as “Non-Toxic”. Further, the viability at 0.005 µM in the data set on ECa-109 cell line [2] was 94.1%. Moreover, the outcome in the data set on ECa-109 cell line [5], in the data set on ECa-109 cell line [6] and with ECa-109 cell line [7] was Active.
